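All cell lines were grown in 96-well plates and treated with compound for 48 hours. The concentration for 50% growth inhibition is given as GI50.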 Activity calls are given as the source filed them. Rule as the data show it: active = GI50 up to about 1.1 µM and inactive = higher. A value given as a limit tells only on which side of the number the result lay.

Among the test systems are CAKI-1; EKVX; HCT-116; HCT-15; HT-29; KM12; OVCAR-4; RPMI-8226; SF-268; SF-295; SK-MEL-2; SK-MEL-5; SNB-75; T47D; UACC-257; UACC-62; UO-31; HL-60; MDA-N.
Common to all, as to assay: NCI-60 cell line screen, 48 h

In the case of `Cc1ccc(S(=O)(=O)ON2C(=O)c3cccc4cc([N+](=O)[O-])cc(c34)C2=O)cc1`, the GI50 with CAKI-1 is 55.8 µM (inactive); with EKVX it was > 100 µM (inactive); in the assay with HCT-116 it was 45.3 µM (inactive); with HCT-15 it was 71 µM; in the assay with HT-29, 28.6 µM (inactive); with KM12, 32.6 µM (inactive). The GI50 in the assay with OVCAR-4 is 93.1 µM (inactive); in the assay on RPMI-8226, > 100 µM (inactive); in the assay on SF-268, 79.3 µM (inactive); with SF-295, > 100 µM (inactive); in the assay with SK-MEL-2, 84.5 µM (inactive); with SK-MEL-5 it was 69.3 µM (inactive). Moreover, the GI50 in the assay with SNB-75 is 41.9 µM (inactive); in the assay on T47D, 51.6 µM (inactive); with UACC-257, 66.2 µM (inactive); with UACC-62, 49.9 µM (inactive); in the assay with UO-31, 42.1 µM (inactive).

For the molecule `O=C(CN1C(=O)CC(c2ccccc2)(c2ccccc2)C1=O)N1CCN(CCO)CC1`, the GI50 was > 100 µM (inactive) in the assay on CAKI-1; > 100 µM (inactive) in the assay with EKVX; > 100 µM (inactive) in the assay on HCT-116; > 100 µM in the assay with HCT-15; > 100 µM (inactive) with HT-29; > 100 µM (inactive) in the assay on KM12. The GI50 with OVCAR-4, in the assay on RPMI-8226, in the assay with SF-268, in the assay on SF-295, in the assay on SK-MEL-2 and in the assay with SK-MEL-5 was > 100 µM (inactive) each time. The GI50 in the assay on SNB-75, in the assay with T47D, in the assay on UACC-257, in the assay on UACC-62 and with UO-31 was > 100 µM (inactive) each time.

Turning to `COc1cc(/C=C/c2csnn2)cc(OC)c1OC`, the GI50 in the assay with CAKI-1 was > 100 µM (inactive); with EKVX, 52.2 µM (inactive); in the assay on HCT-116, > 100 µM (inactive); with HCT-15 it was > 100 µM; with HL-60 it was > 100 µM (inactive); in the assay with HT-29, > 100 µM (inactive). The GI50 was > 100 µM (inactive) in the assay with KM12; > 100 µM (inactive) in the assay with OVCAR-4; > 100 µM (inactive) in the assay with RPMI-8226; 67 µM (inactive) in the assay with SF-268; > 100 µM (inactive) in the assay with SF-295; > 100 µM (inactive) with SK-MEL-2. Further, the GI50 in the assay with SK-MEL-5, with UACC-257, with UACC-62 and in the assay on UO-31 was > 100 µM (inactive) in each case.

Turning to `O=C1/C(=c2\s/c(=C\c3ccccc3)c(=O)n2-c2ccccc2)SC(=S)N1c1ccccc1`, the GI50 in the assay with CAKI-1 is 0.131 µM (active); in the assay with EKVX it was 35.6 µM (inactive); in the assay with HCT-116, 58.9 µM (inactive); in the assay with HCT-15, > 100 µM; with HL-60 it was > 100 µM (inactive); in the assay with HT-29, > 100 µM (inactive). For the same molecule, the GI50 in the assay with KM12 was 71.8 µM (inactive); in the assay with MDA-N it was 94.6 µM (inactive); with OVCAR-4 it was 29.4 µM (inactive); in the assay on RPMI-8226, 56.8 µM (inactive); in the assay on SF-268, 41.8 µM (inactive); with SF-295, 30.3 µM (inactive). The GI50 in the assay on SK-MEL-2 was 32.3 µM (inactive); in the assay with SK-MEL-5 it was 53.2 µM (inactive); in the assay on SNB-75, 19.4 µM (inactive); in the assay with UACC-257, 72.9 µM (inactive); in the assay on UACC-62, 35.6 µM (inactive).

`O=C(/C=C/c1cc(F)ccc1F)OCCc1ccccc1`: the GI50 was > 100 µM (inactive) in the assay with CAKI-1; > 100 µM (inactive) in the assay on EKVX; > 100 µM (inactive) in the assay with HCT-116; 35.6 µM with HCT-15; 16.4 µM (inactive) with HL-60; 43 µM (inactive) in the assay with HT-29. For the same molecule, the GI50 with KM12 was 96.2 µM (inactive); with MDA-N it was 91.4 µM (inactive); in the assay with OVCAR-4 it was 0.933 µM (active); in the assay on RPMI-8226, 47.3 µM (inactive); with SF-268, > 100 µM (inactive); with SK-MEL-2 it was > 100 µM (inactive). Also, the GI50 was 29.2 µM (inactive) with SK-MEL-5; 83.6 µM (inactive) with SNB-75; > 100 µM (inactive) in the assay on UACC-257; 86.5 µM (inactive) in the assay with UACC-62; 95.7 µM (inactive) with UO-31.

As for `Cc1nc(C(N)=S)sc1C(=O)CC(=O)C(=O)Nc1c(C(C)C)cccc1C(C)C`, the GI50 is 42.1 µM (inactive) in the assay with CAKI-1; > 100 µM (inactive) in the assay with EKVX; 38.7 µM (inactive) in the assay on HCT-116; 32.6 µM in the assay on HCT-15; 28 µM (inactive) with HL-60; 37.3 µM (inactive) in the assay with HT-29. For the same molecule, the GI50 in the assay on KM12 is 40.7 µM (inactive); in the assay on OVCAR-4, > 100 µM (inactive); in the assay on RPMI-8226 it was 55.8 µM (inactive); in the assay with SF-268, > 100 µM (inactive); in the assay on SF-295, 29.2 µM (inactive); in the assay with SK-MEL-2 it was 65.5 µM (inactive). The GI50 in the assay with SK-MEL-5 is 54.6 µM (inactive); in the assay with SNB-75, 25.2 µM (inactive); in the assay with UACC-257 it was 60.4 µM (inactive); in the assay with UACC-62 it was 42.5 µM (inactive); in the assay with UO-31, 39.3 µM (inactive).

As for `Cc1ccccc1NC(=O)Cc1csc(N/N=C2\C(=O)Nc3ccccc32)n1`, the GI50 is 19.9 µM (inactive) with CAKI-1; 31.8 µM (inactive) with EKVX; 43.7 µM (inactive) in the assay on HCT-116; 37.2 µM in the assay with HCT-15; 22.3 µM (inactive) in the assay with HL-60; 55.6 µM (inactive) in the assay with HT-29. In addition, the GI50 was 33.3 µM (inactive) in the assay on KM12; 75.2 µM (inactive) in the assay with MDA-N; 21.8 µM (inactive) in the assay with OVCAR-4; 31 µM (inactive) with RPMI-8226; 39.4 µM (inactive) in the assay with SF-268; 16.7 µM (inactive) in the assay with SF-295. Further, the GI50 is 44.6 µM (inactive) in the assay on SK-MEL-2; 46.8 µM (inactive) in the assay on SK-MEL-5; 55.1 µM (inactive) with SNB-75; 91 µM (inactive) with UACC-257; 49.9 µM (inactive) in the assay on UACC-62; 40.8 µM (inactive) in the assay with UO-31.

Take `O=C(CN1CCCCC1)c1ccc2[nH]c(=O)oc2c1`: the GI50 in the assay with CAKI-1 was > 100 µM (inactive); in the assay with EKVX, > 100 µM (inactive); with HCT-116 it was > 100 µM (inactive); in the assay on HCT-15, > 100 µM; with HL-60, > 100 µM (inactive); in the assay on HT-29 it was > 100 µM (inactive). The GI50 in the assay on KM12, in the assay on MDA-N, with RPMI-8226, in the assay on SF-268, with SF-295 and with SK-MEL-2 was > 100 µM (inactive) throughout. Also, the GI50 in the assay on SK-MEL-5 is > 100 µM (inactive); in the assay on SNB-75, 0.957 µM (active); in the assay on UACC-257, > 100 µM (inactive); with UACC-62, > 100 µM (inactive).

For `NC(Cc1ccc(O)cn1)C(=O)O` (stereo not drawn), the GI50 in the assay on CAKI-1 is > 100 µM (inactive); with EKVX, > 100 µM (inactive); in the assay on HCT-116, > 100 µM (inactive); in the assay with HCT-15 it was > 100 µM; with HL-60, 33.8 µM (inactive); with HT-29, > 100 µM (inactive). Moreover, the GI50 with KM12, in the assay with MDA-N, in the assay on OVCAR-4, in the assay on RPMI-8226, in the assay with SF-268 and with SF-295 was > 100 µM (inactive) throughout. Besides, the GI50 in the assay on SK-MEL-5, in the assay on SNB-75, in the assay on UACC-257 and in the assay on UO-31 was > 100 µM (inactive) each time.

For the molecule `CCOC(=O)CN1C(=O)c2cccc3cc([N+](=O)[O-])cc(c23)C1=O`, the GI50 in the assay with EKVX is 15.2 µM (inactive); in the assay with HCT-116, 1.63 µM (inactive); with HCT-15, 1.65 µM; in the assay with HL-60 it was 0.637 µM (active); in the assay on HT-29 it was 12.1 µM (inactive); in the assay on KM12, 2.52 µM (inactive). Besides, the GI50 in the assay on OVCAR-4 is 1.85 µM (inactive); in the assay with RPMI-8226, 1.81 µM (inactive); with SF-268 it was 3.37 µM (inactive); with SK-MEL-2, 1.17 µM (inactive); with SK-MEL-5, 12.4 µM (inactive); in the assay on SNB-75, 10.4 µM (inactive). In addition, the figures for the GI50 with UACC-257, with UACC-62 and in the assay on UO-31 were 2.51 µM (inactive), 2.4 µM (inactive) and 14 µM (inactive), respectively.

As to `Cc1c2cc[n+](COC(=O)c3ccccc3)cc2c(C)c2c1[nH]c1ccccc12`, the GI50 was 1.4 µM (inactive) in the assay on CAKI-1; 0.298 µM (active) in the assay with HCT-116; 1.1 µM (active) with HL-60; 0.453 µM (active) with HT-29; 0.533 µM (active) in the assay on KM12; 0.587 µM (active) in the assay with OVCAR-4. Also, the GI50 was 0.569 µM (active) with RPMI-8226; 0.571 µM (active) in the assay with SF-268; 0.491 µM (active) in the assay on SF-295; 1.36 µM (inactive) with SK-MEL-5; 1.52 µM (inactive) with UACC-257; 1.5 µM (inactive) in the assay on UACC-62. Besides, the GI50 in the assay with UO-31 was 2.03 µM (inactive).

Regarding `O=C(Nc1ccc(Cl)cc1)c1cc(S(=O)(=O)Nc2nnc3c(Cl)cc(C(F)(F)F)cn23)c(S)cc1Cl`, the GI50 with CAKI-1 was > 100 µM (inactive); in the assay with EKVX, > 100 µM (inactive); with HCT-116, 68.1 µM (inactive); with HCT-15 it was > 100 µM; in the assay with HL-60, > 100 µM (inactive); with HT-29, 51.9 µM (inactive). Besides, the GI50 with KM12 is 50.4 µM (inactive); with OVCAR-4, > 100 µM (inactive); in the assay on RPMI-8226, > 100 µM (inactive); with SF-268, 70 µM (inactive); in the assay with SF-295, 44.6 µM (inactive); with SK-MEL-2, 15 µM (inactive). Further, the GI50 is 96.4 µM (inactive) in the assay with SK-MEL-5, > 100 µM (inactive) in the assay with T47D, > 100 µM (inactive) in the assay with UACC-257 and > 100 µM (inactive) in the assay on UO-31.

For `Oc1cc(-c2ccc3ccccc3c2)nc2ncccc12`, the GI50 in the assay on EKVX is 33.2 µM (inactive); in the assay with HCT-15, 4.18 µM; with HT-29, 4.16 µM (inactive); in the assay on KM12 it was 4.88 µM (inactive); with OVCAR-4, 12.1 µM (inactive); in the assay on RPMI-8226, 3.15 µM (inactive). In addition, the GI50 in the assay with SF-268 is 28.1 µM (inactive); with SK-MEL-2, 4.95 µM (inactive); in the assay with SNB-75 it was 11.5 µM (inactive); with T47D, 11.6 µM (inactive); with UACC-257, 12.4 µM (inactive); in the assay on UACC-62, 5.41 µM (inactive). In addition, the GI50 in the assay on UO-31 is 18.1 µM (inactive).
